Experiment [1] has as its system tumor growth. The experiment in a line: MTT anticancer activity of Y, X and hydrolysis products (FIG. 4C). The class given is cell-based. As to conditions: for IC50: read-out: IC50, inhibits tumor growth / anticancer activity. On the procedure: MTT Assay. The procedure for MTT assay followed the method described by Carmichael et al. (1987) with modifications. The cells were seeded into a 96-well plate at concentration of 10,000/well for HTB-9, HeLa, H460, HCT116, T98G and OVCAR-3), 15,000/well for DU145, MCF-7, HepG2 and U2OS), and 40,000/well for K562 for 24 hours before drug-treatment. The cells were then exposed to the drugs for 48 hours (72 hours for HepG2 and U2OS, and 96 hours for MCF-7). After the drug-treatment, MTT (0.5 mg/mL) was added to cultures and incubated for an hour. The formazan (product of the reduction of tetrazolium by viable cells) formed and was dissolved with DMSO and the O.D. at 490 nm, and was measured by an ELISA reader. The MTT level of the cells before drug-treatment was also measured (T0). The % cell-growth (% G) is calculated as: % G=(TD−T0/TC−T0)×100(1), where TC or TD represents O.D. readings of control or drug-treated cells. When T0>TD, then the cytotoxicity (LC) expressed as % of the control is calculated as: % LC=(TD−T0/T0)×100(2).
(A) Alkaline Hydrolysis of Xanifolia-Y: 20 mg of Xanifolia-Y was dissolved in 0.5 mL of 1M NaOH. The solution was incubated in an 80° C. water bath for 4 hours. It was cooled to room temperature before being neutralized with 0.5 mL 1 N HCl (adjusted pH to about 3). The mixture was extracted with 2 mL 1-butanol 3 times. The butanol fractions were collected and lyophilized. The hydrolyzed saponin was further purified with HPLC in a C-18 column eluted with 25% acetonitrile.
(B) Acid Hydrolysis of Xanifolia-Y: 15 mg Xanifolia-Y was dissolved in 1 mL of Methanol. 1 mL of 2N HCl was then added. The mixture was refluxed in an 80° C. water bath for 5 hours. The solution was then neutralized by adding 2 mL of 1N NaOH (to a final pH 3-4). The aglycone was then extracted with ethylacetate 3 mL×3. The extracts were collected and pooled. Further isolation of aglycone (sugar-removed Xanifolia-Y) was achieved by HPLC with isocratic elution of 80% acetonitrile.

In experiment [2] the test system is Fibronectin secretion from skin SK-Mel-5 cells. The experiment in a line: Fibronectin secretion (Western blot), SK-MEL-5 cells. The class given is cell-based, human. As to conditions: Homo sapiens.
Experiment [3] concerns potassium channel, subfamily U, protein expression in ES2 cells. As to the kind of experiment: Microarray gene expression, Table 18. It is filed as cell-based, human. As to conditions: probe 237273_at. On the procedure: Y/D is the ratio (in folds) of gene expression in cells treated with compound Y as compared with those of the no drug control (D),
YM/D is the ratio of gene expression in cells treated with compound YM (ACH-Y, Y without sugar moiety) compared with those of the no drug control (D)
Cell culture and drug-treatment.: ES2 cells were seeded in a T-25 flask with 4.5 million cells per flask for 24 hours. Cell culture was replaced with fresh medium with xanifolia-Y (Y) or DMSO no drug control (D) for 24 hours. Cells were then harvested for RNA isolation. Three experiments were done.
RNA extraction, labeling, hybridization, and data analysis. RNA was extracted from tumor cells using the Qiagen RNeasy Kit. RNA quality and quantity was checked by the Agilent BioAnalyzer and the NanoDrop® ND-1000 spectrophotometer respectively before further manipulation. […] The images were analyzed and quality control metrics recorded using Affymetrix GCOS software version 1.4. Lastly, the expression value for each gene was calculated using dChip PM-only model based or Plier algorithm.
Pairwise comparisons were made as follows: Treated vs. Control (Y vs. D), Modified Drug vs Control (YM/ACY-H vs. D) and Treated vs. Modified Drug (Y vs. YM/ACH-Y) Cel files analyzed using the Bioconductor package of R Statistical programming. […]

In experiment [4] the test system is Fibronectin secretion from brain glioblastoma T98G cells. The experiment in a line: Fibronectin secretion (Western blot), T98G cells. As to conditions: for inhibition at 20 µg/mL: 20 ug/ml. It is filed as cell-based, human. A general note: A western blot detects proteins with antibodies after separation by electrophoresis.

From patent publication US10213451B2, “Methods and compounds for modulating the secretion or expression of adhesion proteins or angiopoietins of cells” (PACIFIC ARROW LIMITED, priority 2004, dated 2019) come the findings set out here.

≈ marks a conversion by molar mass, not a printed value. Where two headings read alike, the source gives them in different places.

With `C/C=C(/C)C(=O)O[C@H]1[C@H](OC(=O)/C(C)=C\C)[C@@]2(CO)C(CC1(C)C)C1=CCC3[C@@]4(C)CC[C@H](O[C@@H]5OC(C(=O)O)[C@@H](O)C(O[C@@H]6O[C@@H](CO)C(O)C6O)C5O[C@@H]5OC(CO)[C@H](O)C(O)C5O)C(C)(C)C4CC[C@@]3(C)[C@]1(C)[C@@H](O)[C@H]2O` (stereo partly drawn) [Xanifolia-Y, 3-O-[β-D-galactopyranosyl (1→2)]-α-L-arabinofuranosy (1→3)-β-D-glucuronopyranosyl-21,22-O-diangeloyl-3β, 15α, 16α, 21β, 22α, 28-hexahydroxyolean-12-ene], the IC50 in experiment [1] (FIG. 4C) is 4 µg/mL (≈ 3.5 µM); in experiment [1] it was 1.5 to 4.5 µg/mL (≈ 1.31 to 3.94 µM). Also, the inhibition – broadly, the change of the read-out against control, counted positive when it falls – at 10 µg/mL in experiment [2] (10 ug/ml) stood at 11%; in experiment [4] (Homo sapiens, T98G, 10 ug/ml), 27%. Besides, the inhibition at 20 µg/mL in experiment [2] (20 ug/ml) is 40 to 57%; in experiment [4] (Homo sapiens, T98G) it was 74%. Also, the “KCNU1 potassium channel, subfamily U, member 1, gene expression ratio to no drug control (D)” value in experiment [3] is −4.0 folds. The “% inhibition of Fibronectin secretion” value in experiment [4] (10 ug/ml, listed as Y3) is given as 26%.

Take `C/C=C(/C)C(=O)O[C@H]1[C@H](OC(=O)/C(C)=C\C)[C@@]2(CO)C(CC1(C)C)C1=CCC3[C@@]4(C)CC[C@H](O)C(C)(C)C4CC[C@@]3(C)[C@]1(C)[C@@H](O)[C@H]2O` (some centres unmarked) [ACH-Y]: the “MTT activities of hydrolysed products of compound Y” value in experiment [1] (FIG. 4C, 4D) is “very weak”. Further, the IC50 in experiment [1] (FIG. 4C) is 9.5 µg/mL (≈ 14.2 µM). Further, the “anticancer activity retained after removal of sugars from Y” value in experiment [1] (relative to Y) is recorded as 40%. Moreover, the inhibition at 30 µg/mL in experiment [2] (30 ug/ml) is 21%. Besides, in experiment [3], the “KCNU1 potassium channel, subfamily U, member 1, gene expression ratio to no drug control (D)” value is −1.9 folds. In addition, the inhibition at 20 µg/mL in experiment [4] (Homo sapiens, T98G) stood at 30%.
